# Laboratory results published in US20260232767A1, “INTERLEUKIN-23 RECEPTOR ANTAGONIST PEPTIDES FOR USE IN THE TREATMENT OF PSORIASIS” (Janssen Pharmaceutica NV, priority 2023, published 2026).
# Where two headings read alike, the source gives them in different places.
# Assay: Plasma concentrations (PK), Example 1
# Assay type: in vivo, human
# Description: For QD dosing, peak concentration was defined as any PK sample taken between 0.25 to <6 hours after the last morning dose and trough concentration was at least 20 hours after the last morning dose. For BID dosing, peak concentration was defined as any PK sample taken between 0.25 to <4 hours after the last dose and trough concentration was at least 8 hours after the last dose.
structure (smiles),measurement,setting,value
"CC(=O)NCCCC[C@@H]1NC(=O)[C@H](Cc2c[nH]c3c(C)cccc23)NC(=O)[C@H]([C@@H](C)O)NC(=O)[C@H](CC(N)=O)NC(=O)[C@@H](NC(C)=O)C(C)(C)SSC(C)(C)[C@@H](C(=O)N[C@@H](Cc2ccc(OCCN)cc2)C(=O)N[C@@H](Cc2ccc3ccccc3c2)C(=O)NC2(C(=O)N[C@@H](CCC(=O)O)C(=O)N[C@@H](CC(N)=O)C(=O)N[C@@H](Cc3cccnc3)C(=O)N(C)CC(N)=O)CCOCC2)NC1=O [IL-23 receptor antagonist peptide, Ac-[Pen]*-N-T-[W(7-Me)]-[Lys(Ac)]-[Pen]*-Phe[4-(2-aminoethoxy)]-[2-Nal]-[THP]-E-N-[3-Pal]-Sarc-NH2 (*[Pen]-[Pen]* formdisulfidebond)]",Number of subjects with plasma concentration below LLOQ,"25 mg BID, Week 2, Intermediate",0
same,Number of subjects with plasma concentration below LLOQ,"25 mg BID, Week 2, Peak",0
same,Number of subjects with plasma concentration below LLOQ,"25 mg BID, Week 2, Trough",1 (100.0%)
same,Number of subjects with plasma concentration below LLOQ,"25 mg BID, Week 4, Intermediate",0
same,Number of subjects with plasma concentration below LLOQ,"25 mg BID, Week 4, Peak",0
same,Number of subjects with plasma concentration below LLOQ,"25 mg BID, Week 4, Trough",1 (100.0%)
same,Number of subjects with plasma concentration below LLOQ,"25 mg BID, Week 8, Intermediate",0
same,Number of subjects with plasma concentration below LLOQ,"25 mg BID, Week 8, Peak",1 (50.0%)
same,Number of subjects with plasma concentration below LLOQ,"25 mg BID, Week 8, Trough",2 (100.0%)
same,Number of subjects with plasma concentration below LLOQ,"25 mg BID, Week 12, Intermediate",0
same,Number of subjects with plasma concentration below LLOQ,"25 mg BID, Week 12, Peak",0
same,Number of subjects with plasma concentration below LLOQ,"25 mg BID, Week 12, Trough",2 (100.0%)
same,Number of subjects with plasma concentration below LLOQ,"25 mg BID, Week 16, Intermediate",0
same,Number of subjects with plasma concentration below LLOQ,"25 mg BID, Week 16, Peak",0
same,"Plasma concentration, Median","25 mg BID, Week 16, Peak",0.796 ng/mL
same,Number of subjects with plasma concentration below LLOQ,"25 mg BID, Week 16, Trough",1 (100.0%)
same,"Plasma concentration, Median","25 mg BID, Week 16, Trough",0.134 ng/mL
same,Number of subjects with plasma concentration below LLOQ,"25 mg QD, Week 1, Intermediate",0
same,Number of subjects with plasma concentration below LLOQ,"25 mg QD, Week 1, Peak",0
same,Number of subjects with plasma concentration below LLOQ,"25 mg QD, Week 1, Trough, LLOQ 0.02 ng/mL",3 (100.0%)
same,Number of subjects with plasma concentration below LLOQ,"25 mg QD, Week 2, Intermediate",0
same,Number of subjects with plasma concentration below LLOQ,"25 mg QD, Week 2, Peak",3 (100.0%)
same,Number of subjects with plasma concentration below LLOQ,"25 mg QD, Week 2, Trough",0
same,Number of subjects with plasma concentration below LLOQ,"25 mg QD, Week 4, Intermediate",0
same,Number of subjects with plasma concentration below LLOQ,"25 mg QD, Week 4, Peak",0
same,Number of subjects with plasma concentration below LLOQ,"25 mg QD, Week 4, Trough",3 (100.0%)
same,Number of subjects with plasma concentration below LLOQ,"25 mg QD, Week 8, Intermediate",0
same,Number of subjects with plasma concentration below LLOQ,"25 mg QD, Week 8, Peak",0)
same,Number of subjects with plasma concentration below LLOQ,"25 mg QD, Week 8, Trough",2 (100.0%)
same,Number of subjects with plasma concentration below LLOQ,"25 mg QD, Week 12, Intermediate",0
same,Number of subjects with plasma concentration below LLOQ,"25 mg QD, Week 12, Peak",0
same,Number of subjects with plasma concentration below LLOQ,"25 mg QD, Week 12, Trough",6
same,Number of subjects with plasma concentration below LLOQ,"25 mg QD, Week 16, Intermediate",0
same,Number of subjects with plasma concentration below LLOQ,"25 mg QD, Week 16, Peak",2
same,"Plasma concentration, Median","25 mg QD, Week 16, Peak",0.295 ng/mL
same,Number of subjects with plasma concentration below LLOQ,"25 mg QD, Week 16, Trough",2
same,"Plasma concentration, Median","25 mg QD, Week 16, Trough",0.057 ng/mL
same,Number of subjects with plasma concentration below LLOQ,"50 mg QD, Week 2, Intermediate",0
same,Number of subjects with plasma concentration below LLOQ,"50 mg QD, Week 2, Peak",1 (100.0%)
same,Number of subjects with plasma concentration below LLOQ,"50 mg QD, Week 2, Trough",0
same,Number of subjects with plasma concentration below LLOQ,"50 mg QD, Week 12, Intermediate",0
same,Number of subjects with plasma concentration below LLOQ,"50 mg QD, Week 12, Peak",0
same,Number of subjects with plasma concentration below LLOQ,"50 mg QD, Week 12, Trough",2 (100.0%)
same,Number of subjects with plasma concentration below LLOQ,"50 mg QD, Week 16, Intermediate",0
same,Number of subjects with plasma concentration below LLOQ,"50 mg QD, Week 16, Peak",0
same,"Plasma concentration, Median","50 mg QD, Week 16, Peak",0.917 ng/mL
same,Number of subjects with plasma concentration below LLOQ,"50 mg QD, Week 16, Trough",3 (100.0%)
same,"Plasma concentration, Median","50 mg QD, Week 16, Trough",0.089 ng/mL
same,Number of subjects with plasma concentration below LLOQ,"100 mg BID, Week 16, Intermediate",0
same,Number of subjects with plasma concentration below LLOQ,"100 mg BID, Week 16, Peak",0
same,"Plasma concentration, Median","100 mg BID, Week 16, Peak",1.970 ng/mL
same,Number of subjects with plasma concentration below LLOQ,"100 mg BID, Week 16, Trough",1 (100.0%)
same,"Plasma concentration, Median","100 mg BID, Week 16, Trough",0.451 ng/mL
same,Number of subjects with plasma concentration below LLOQ,"100 mg QD, Week 12, Intermediate",1 (33.3%)
same,Number of subjects with plasma concentration below LLOQ,"100 mg QD, Week 12, Peak",1 (33.3%)
same,Number of subjects with plasma concentration below LLOQ,"100 mg QD, Week 12, Trough",1 (33.3%)
same,Number of subjects with plasma concentration below LLOQ,"100 mg QD, Week 16, Intermediate",1 (33.3%)
same,Number of subjects with plasma concentration below LLOQ,"100 mg QD, Week 16, Peak",0
same,"Plasma concentration, Median","100 mg QD, Week 16, Peak",1.165 ng/mL
same,Number of subjects with plasma concentration below LLOQ,"100 mg QD, Week 16, Trough",2 (66.7%)
same,"Plasma concentration, Median","100 mg QD, Week 16, Trough",0.132 ng/mL
same,Effect of body weight on systemic exposure,"baseline body weight subgroups, through Week 16",not consistently evident that body weight has a major impact on systemic exposure
same,Drug accumulation (median trough concentrations),between Week 1 and 16,no apparent drug accumulation
same,level at 672 h,"human, plasma, oral, 25 mg, 25 mg BID, Week 4, Peak, read-out: Plasma concentration, Geometric Mean",0.539 ng/mL
same,level at 672 h,"human, plasma, oral, 25 mg, 25 mg BID, Week 4, Peak, read-out: Plasma concentration, Mean",0.655 ng/mL
same,level at 672 h,"human, plasma, oral, 25 mg, 25 mg BID, Week 4, Peak, read-out: Plasma concentration, Median",0.52 ng/mL
same,level at 1344 h,"human, plasma, oral, 25 mg, 25 mg BID, Week 8, Intermediate, read-out: Plasma concentration, Geometric Mean",0.092 ng/mL
same,level at 1344 h,"human, plasma, oral, 25 mg, 25 mg BID, Week 8, Intermediate, read-out: Plasma concentration, Mean",0.092 ng/mL
same,level at 1344 h,"human, plasma, oral, 25 mg, 25 mg BID, Week 8, Intermediate, read-out: Plasma concentration, Median",0.092 ng/mL
same,level at 1344 h,"human, plasma, oral, 25 mg, 25 mg BID, Week 8, Peak, read-out: Plasma concentration, Geometric Mean",0.483 ng/mL
same,level at 1344 h,"human, plasma, oral, 25 mg, 25 mg BID, Week 8, Peak, read-out: Plasma concentration, Mean",0.672 ng/mL
same,level at 1344 h,"human, plasma, oral, 25 mg, 25 mg BID, Week 8, Peak, read-out: Plasma concentration, Median",0.545 ng/mL
same,level at 1344 h,"human, plasma, oral, 25 mg, 25 mg BID, Week 8, Trough, read-out: Plasma concentration, Geometric Mean",0.151 ng/mL
same,level at 1344 h,"human, plasma, oral, 25 mg, 25 mg BID, Week 8, Trough, read-out: Plasma concentration, Mean",0.184 ng/mL
same,level at 1344 h,"human, plasma, oral, 25 mg, 25 mg BID, Week 8, Trough, read-out: Plasma concentration, Median",0.143 ng/mL
same,level at 2016 h,"human, plasma, oral, 25 mg, 25 mg BID, Week 12, Trough, read-out: Plasma concentration, Mean",0.202 ng/mL
same,level at 672 h,"human, plasma, oral, 25 mg, 25 mg QD, Week 4, Peak, read-out: Plasma concentration, Geometric Mean",0.469 ng/mL
same,level at 672 h,"human, plasma, oral, 25 mg, 25 mg QD, Week 4, Peak, read-out: Plasma concentration, Mean",0.591 ng/mL
same,level at 672 h,"human, plasma, oral, 25 mg, 25 mg QD, Week 4, Peak, read-out: Plasma concentration, Median",0.425 ng/mL
same,level at 1344 h,"human, plasma, oral, 25 mg, 25 mg QD, Week 8, Intermediate, read-out: Plasma concentration, Geometric Mean",0.168 ng/mL
same,level at 1344 h,"human, plasma, oral, 25 mg, 25 mg QD, Week 8, Intermediate, read-out: Plasma concentration, Mean",0.211 ng/mL
same,level at 1344 h,"human, plasma, oral, 25 mg, 25 mg QD, Week 8, Intermediate, read-out: Plasma concentration, Median",0.177 ng/mL
same,level at 1344 h,"human, plasma, oral, 25 mg, 25 mg QD, Week 8, Peak, read-out: Plasma concentration, Geometric Mean",0.284 ng/mL
same,level at 1344 h,"human, plasma, oral, 25 mg, 25 mg QD, Week 8, Peak, read-out: Plasma concentration, Mean",0.443 ng/mL
same,level at 1344 h,"human, plasma, oral, 25 mg, 25 mg QD, Week 8, Peak, read-out: Plasma concentration, Median",0.325 ng/mL
same,level at 1344 h,"human, plasma, oral, 25 mg, 25 mg QD, Week 8, Trough, read-out: Plasma concentration, Geometric Mean",0.061 ng/mL
same,level at 1344 h,"human, plasma, oral, 25 mg, 25 mg QD, Week 8, Trough, read-out: Plasma concentration, Mean",0.068 ng/mL
